# Several values for one entry are separate records, joined by “and”; a condition that tells them apart may be missing. Equal values may be shown once. Entries after “also recorded” stand apart in the source; their conditions may differ. Read-outs that look alike come from different tables or passages of the source.
# Key:
# [1] = male, human, in vivo
# [2] = test system: GR target genes (CDKN1C); assay: GR target gene expression in blood (NanoString)
# [3] = test system: metastatic castration-resistant prostate cancer (mCRPC)
# Description: Patients received either exicorilant 180 mg twice daily (BID)+enzalutamide 160 mg once daily (QD), or exicorilant 140 mg BID+enzalutamide 160 mg QD with a 28-day enzalutamide lead-in, or exicorilant 140 mg BID+enzalutamide 160 mg QD without an enzalutamide lead-in. Segment 2 enrolled patients who were on a stable dose of enzalutamide with rising PSA (25% increase over nadir and an absolute value >1 ng/mL) and evaluated QD dosing of exicorilant in a double-blind design. All segment 2 patients received exicorilant 240 mg QD+enzalutamide and were randomized 3:1 to titrate to exicorilant 280 mg or 320 mg or to receive placebo.
# Segment 2 of the study was a double-blind, placebo-controlled study of patients with rising PSA; exicorilant was administered once-daily, at a dose that was phased-in (titrated in these patients from 240 mg/day, to 280 mg/ day, to 320 mg/day). […] Twenty five patients were enrolled and randomized in a ratio of 3:1 to arm A or to arm B. Exicorilant was administered to the patients once per day, with food; enzalutamide was administered at the dose that was currently tolerated and stable for each patient. Pharmacokinetic assessments of both exicorilant and enzalutamide were made on cycle 1, day 15 (C1D15), and two weeks after each dose escalation; pharmacokinetic assessments of exicorilant were made after each dose reduction (if any). Pharmacodynamic (PD) assessments were made on cycle 1, day 1 (C1D1), cycle 1, day 15 (C1D15), and two weeks after each dose escalation every three cycles from cycle 3, and upon exicorilant discontinuation or disease progression.
# PSADT was calculated prior to the first dose of exicorilant (patients on enzalutamide alone), and after C1D1, C2D1, and C3D1 (where “C1D1” stands for cycle 1, day 1 of the combined treatment; “C2D1” stands for cycle 2, day 1 of the combined treatment; and “C3D1” stands for cycle 3, day 1 of the combined treatment).
# The median duration of exposure to exicorilant was 9.7 weeks (range: 2-61). In the results shown in FIG. 8A, tumor response was assessed by Prostate Cancer Clinical Trials Working Group 3 (PCWG3) criteria, incorporating modified “Response Evaluation Criteria in Solid Tumors v1.1” (mRECIST v1.1) criteria. Imaging-based PFS was assessed by mRECIST v1.1, progression on bone lesions per PCWG3, or death.
# [4] = test system: cortisol, ACTH; assay: serum cortisol, ACTH and 24-h urinary free cortisol in patients; format: in vivo, human; details: for serum cortisol and ACTH levels: patients receiving exicorilant and enzalutamide
# Description: Data from Segment 2 subjects whose exicorilant doses were escalated to the doses indicated on the horizontal axis. The 24-h UFC reference range was 10-100 μg/day. The 24-h UFC value for C1D1 (cycle 1, day 1) indicates the initial 24-h UFC levels.
# Consistent with prior studies of exicorilant and other SGRMs, morning serum cortisol and ACTH levels were not affected in the safety population or patients who escalated to 320 mg exicorilant. […] The grey band indicates the baseline mean±SD. End of treatment: n=9; cycle 9 day 1: n=3; cycle 6 day 1: n=8; cycle 3 day 1: n=14; cycle 2 day 1: n=13; baseline: n=20.
# [5] = test system: 22Rv1 prostate cancer xenografts; assay: mouse 22Rv1 prostate cancer xenografts; format: in vivo; details: 21 days
# Description: Left: N=10 mice/group. Castration performed 5 days after inoculation with 22Rv1 tumor cells; exicorilant treatment initiated on day 6 for 21 days. Right: N=10 mice/group. Castration performed 3 days before implantation of 22Rv1 tumor cells; exicorilant treatment initiated on day 7 for 21 days.
# [6] = Description: The present study was an investigation of the safety and efficacy of exicorilant when administered in combination with enzalutamide in the treatment of patients suffering from metastatic castration-resistant prostate cancer (mCRPC). […] Patients with histologically confirmed prostate cancer, who had received at least two prior regimens of cytotoxic chemotherapy, were eligible for this study.
# Patients in Segment 1 of the study received exicorilant twice daily under fasted conditions. This segment of the study was performed with a standard ‘3+3’ design, including one cohort with an enzalutamide alone lead-in. Enzalutamide was administered once daily.
# Patients in Segment 2 of the study received exicorilant once daily under fed conditions. This segment of the study was a double-blind study, in which patients were randomized 3:1 to exicorilant titration (starting at 240 mg, titrated to 280 mg followed by 320 mg every 2 weeks as tolerated starting Cycle 1 Day 16) or to stay on exicorilant 240 mg+placebo. Enzalutamide was administered once daily.
# Treatment emergent adverse events (TEAEs) and dose-limiting toxicity events (DLTs) were evaluated for the patients in Segment 2.
# Dose-limiting toxicities (DLTs) were recorded from first dose of exicorilant through Cycle 3 and were defined as considered possibly or probably related to study drug by the investigator.
# [7] = target: T1, human GR (Homo sapiens, UniProt P04150); assay: human GR binding
# T1 sequence (P04150 1-777): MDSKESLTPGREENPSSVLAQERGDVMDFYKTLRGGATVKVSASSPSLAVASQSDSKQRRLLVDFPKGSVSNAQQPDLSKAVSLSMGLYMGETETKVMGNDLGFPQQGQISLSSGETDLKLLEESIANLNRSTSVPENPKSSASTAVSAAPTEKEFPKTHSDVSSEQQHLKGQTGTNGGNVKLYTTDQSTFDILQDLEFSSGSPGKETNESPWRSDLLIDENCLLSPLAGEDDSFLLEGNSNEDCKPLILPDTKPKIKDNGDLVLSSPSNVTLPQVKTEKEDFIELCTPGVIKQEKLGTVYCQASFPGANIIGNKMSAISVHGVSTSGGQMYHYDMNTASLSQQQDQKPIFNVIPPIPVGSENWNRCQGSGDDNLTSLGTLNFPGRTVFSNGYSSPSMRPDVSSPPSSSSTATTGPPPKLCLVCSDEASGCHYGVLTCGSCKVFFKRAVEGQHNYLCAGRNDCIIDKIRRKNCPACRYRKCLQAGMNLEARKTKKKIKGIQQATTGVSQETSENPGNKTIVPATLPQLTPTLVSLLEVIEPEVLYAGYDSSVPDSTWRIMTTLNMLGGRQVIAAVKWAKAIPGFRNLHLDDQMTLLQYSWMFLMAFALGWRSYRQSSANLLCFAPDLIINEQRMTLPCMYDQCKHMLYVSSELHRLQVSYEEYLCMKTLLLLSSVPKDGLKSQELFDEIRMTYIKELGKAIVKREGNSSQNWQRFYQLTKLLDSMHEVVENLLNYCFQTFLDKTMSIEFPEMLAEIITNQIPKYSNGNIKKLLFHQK
# [8] = exicorilant pharmacokinetics in Segment 2 patients; format: in vivo, human; details: for AUC(0-t) / Cmax: male, human, in vivo, oral, once daily with food; for AUC(0-t): read-out: AUC0-24, geometric mean; for Cmax: read-out: Cmax, geometric mean
# Description: Exicorilant pharmacokinetics observed in the patients in Segment 2 are illustrated in FIG. 4A (data are shown as geometric mean plus geometric standard deviation), and tabulated in TABLE 6.
# [9] = target: T1, human GR; assay: human GR functional assays; format: cell-based
# [10] = test system: ER and AR; assay: selectivity for GR relative to ER and AR
# [11] = Segment 2 (n = 25), PCWG3 criteria
# [12] = Arm A, EXI 240 mg + ENZA 160 mg (15 PK observations)
# [13] = Arm A, EXI 280 mg + ENZA 160 mg (8 PK observations)
# [14] = Arm A, EXI 320 mg + ENZA 160 mg (8 PK observations)
# [15] = Arm B, EXI 240 mg + ENZA 160 mg (14 PK observations, combined)
compound,measurement,setting,value
CNC(=O)c1ccc(N2C(=S)N(c3ccc(C#N)c(C(F)(F)F)c3)C(=O)C2(C)C)cc1F [enzalutamide],enzalutamide exposures in combination with exicorilant,[1],consistent with historical data for enzalutamide 160 mg alone
same,CDKN1C expression,"[2]; enzalutamide alone, Segment 1 lead-in",not affected
CNC(=O)c1ccc(N2C(=S)N(c3ccc(C#N)c(C(F)(F)F)c3)C(=O)C2(C)C)cc1F.Cn1ncc(S(=O)(=O)N2CC[C@H]3Cc4c(cnn4-c4ccc(F)cc4)C[C@]3(C(=O)c3cc(C(F)(F)F)ccn3)C2)n1 [exicorilant+enzalutamide],"PSA reductions at any time during treatment, % of patients",[3]; Segment 2,56%
same,"PSA reductions at any time during treatment, number of patients",[3]; Segment 2,14
same,patients with greater than 25% increase in PSADT,[3]; Segment 2,Two
same,"PSA response (≥50% PSA reduction from baseline), number of patients",[3]; Segment 2 (n = 25),1
same,"reductions in PSA as compared to baseline, % of patients",[3]; Segment 2 (n = 25),15% and 16%
same,"reductions in PSA as compared to baseline, number of patients",[3]; Segment 2 (n = 25),4
same,radiographic / imaging-based tumor responses,"[3]; Segment 2 (n = 25), PCWG3/mRECIST v1.1",no radiographic responses; also recorded: no imaging-based tumor responses
same,"best overall response of stable disease, % of patients",[3]; [11],72%
same,"best overall response of stable disease, number of patients",[3]; [11],18
same,"PSADT increased, % of patients","[3]; Segment 2, After C1D1 (n = 25)",52%
same,"PSADT increased, number of patients","[3]; Segment 2, After C1D1 (n = 25)",13
same,"PSADT increased, % of patients","[3]; Segment 2, After C2D1 (n = 23)",69.6%
same,"PSADT increased, number of patients","[3]; Segment 2, After C2D1 (n = 23)",16
same,"PSADT increased, % of patients","[3]; Segment 2, After C3D1 (n = 13)",61.4%
same,"PSADT increased, number of patients","[3]; Segment 2, After C3D1 (n = 13)",8
same,"PSADT increase, % of patients",[3]; Segment 2 patients who received more than two cycles of the combined treatment,61.5%
same,"PSA declines by the second on-treatment PSA assessment, number of patients",[3]; of 14 patients with PSA reductions,11
same,PSA reduction from baseline in one patient,[3]; patient who received 320 mg exicorilant with 160 mg enzalutamide,71.1%
same,PSA reduction from baseline in one patient,[3]; patient with 240 mg exicorilant + 160 mg enzalutamide,36.7%
same,"increases in PSA doubling time, % of patients",[3]; patients dosed daily under fed conditions,more than 50%
same,serum cortisol and ACTH levels,[4],neither ACTH nor cortisol levels are significantly elevated
same,tumor growth,"[5]; exicorilant with enzalutamide vs enzalutamide alone, castrated mice, N=10/group",significantly reduced tumor growth
same,SAEs with a fatal outcome,[6]; Segment 2,No SAEs with a fatal outcome
same,grade 5 TEAEs,[6]; all patients,no grade 5 adverse events; also recorded: no grade 5 TEAEs
same,"grade 4 TEAEs, number","[6]; human, in vivo",one
same,"tolerated phase 2 regimen, exicorilant dose","[6]; once-daily, combined with 160 mg enzalutamide once daily, based on DLTs",240 mg
same,dose-limiting events,"[6]; segment 1, exicorilant BID fasted","Dose-limiting fatigue, musculoskeletal pain, and pancreatitis"
"Cn1ncc(S(=O)(=O)N2CC[C@H]3Cc4c(cnn4-c4ccc(F)cc4)C[C@]3(C(=O)c3cc(C(F)(F)F)ccn3)C2)n1 [exicorilant, ((4aR,8aS)-1-(4-fluorophenyl)-6-((2-methyl-2H-1,2,3-triazol-4-yl)sulfonyl)-4,4a,5,6,7,8,8a,9-octahydro-1H-pyrazolo[3,4-g]isoquinolin-4a-yl)(4-(trifluoromethyl)pyridin-2-yl)methanone]",Ki,[7],< 1 nM
same,24-h urinary free cortisol (UFC) levels,[4]; Segment 2 subjects with escalated exicorilant doses,did not increase UFC levels
same,serum cortisol and ACTH levels,[4],did not affect cortisol or ACTH levels; also recorded: not significantly altered; also recorded: no significant alterations
same,exicorilant exposures across arms and dose levels,"[8]; Segment 2, 240-320 mg",largely overlapping across arms and dose levels
same,AUC(0-t),[8]; [12],366 µg·h/mL
same,Cmax,[8]; [12],17.7 µg/mL
same,AUC(0-t),[8]; [13],401 µg·h/mL
same,Cmax,[8]; [13],19.6 µg/mL
same,AUC(0-t),[8]; [14],428 µg·h/mL
same,Cmax,[8]; [14],19.6 µg/mL
same,AUC(0-t),[8]; [15],375 µg·h/mL
same,Cmax,[8]; [15],17.2 µg/mL
same,tumor growth,"[5]; exicorilant with castration vs castration alone, N=10 mice/group",significantly reduced tumor growth
same,most frequently reported TEAE assessed as related to exicorilant,"[6]; human, in vivo",fatigue
same,"Exicorilant-related TEAE ALP increased, % of patients","[6]; male, human, in vivo",(12.0%)
same,"Exicorilant-related TEAE ALP increased, number of patients","[6]; male, human, in vivo",3
same,"Exicorilant-related TEAE Anemia, % of patients","[6]; male, human, in vivo",(16.0%)
same,"Exicorilant-related TEAE Anemia, number of patients","[6]; male, human, in vivo",4
same,"Exicorilant-related TEAE Constipation, % of patients","[6]; male, human, in vivo",(28.0%)
same,"Exicorilant-related TEAE Constipation, number of patients","[6]; male, human, in vivo",7
same,"Exicorilant-related TEAE Decreased appetite, % of patients","[6]; male, human, in vivo",(24.0%)
same,"Exicorilant-related TEAE Decreased appetite, number of patients","[6]; male, human, in vivo",6
same,"Exicorilant-related TEAE Lymphocyte count decreased, % of patients","[6]; male, human, in vivo",(12.0%)
same,"Exicorilant-related TEAE Lymphocyte count decreased, number of patients","[6]; male, human, in vivo",3
same,"Exicorilant-related TEAE Nausea, % of patients","[6]; male, human, in vivo",(20.0%)
same,"Exicorilant-related TEAE Nausea, number of patients","[6]; male, human, in vivo",5
same,"Exicorilant-related TEAE Pain in extremity, % of patients","[6]; male, human, in vivo",(20.0%)
same,"Exicorilant-related TEAE Pain in extremity, number of patients","[6]; male, human, in vivo",5
same,"Patients with any TEAE related to exicorilant, %","[6]; male, human, in vivo",(92.0%)
same,"Patients with any TEAE related to exicorilant, number","[6]; male, human, in vivo",23
same,"SAEs assessed as being related to exicorilant, number","[6]; male, human, in vivo",1
same,"exicorilant-related AE back pain, % of patients","[6]; male, human, in vivo",35%
same,"exicorilant-related AE decreased appetite, % of patients","[6]; male, human, in vivo",27%
same,"exicorilant-related AE fatigue, % of patients","[6]; male, human, in vivo",57%
same,"exicorilant-related AE pain in extremity, % of patients","[6]; male, human, in vivo",22%
same,"pharmacodynamic effects (gene expression), with food vs fasting",[2]; 240-320 mg QD with food vs BID fasting (Segment 1),larger when exicorilant was administered with food; also recorded: greater than those observed in fasted patients
same,modulation of GR target genes,[2]; patients receiving exicorilant,confirmed modulation of GR target genes; also recorded: Modulation of GR target genes was observed
same,Ki,[9],< 15 nM
same,mode of action at GR,[9],"competitive, reversible, full antagonist of GR"
same,selectivity for GR,[10],selectivity for GR relative to ER and AR
